Data from ChEMBL document CHEMBL1201862, “PubChem BioAssay data set” (2004).
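Briefly, cells in 96-well plates were exposed to five compound concentrations for 48 h, and endpoints were estimated by linear interpolation. Here, GI50 denotes the concentration required for 50% inhibition of growth.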 The source made the active and inactive calls. Rule as the data show it: active = GI50 up to about 1.1 µM and inactive = higher.

Tests used:
Assay in all cases: NCI-60 cell line screen, 48 h
SF-268 = test system: SF-268
SNB-19 = test system: SNB-19
NCI/ADR-RES = test system: NCI/ADR-RES
SN12C = test system: SN12C
SR = test system: SR
Hs-578T = test system: Hs-578T
HCC 2998 = test system: HCC 2998
EKVX = test system: EKVX
HT-29 = test system: HT-29
HOP-62 = test system: HOP-62
OVCAR-4 = test system: OVCAR-4
RXF 393 = test system: RXF 393
HL-60 = test system: HL-60
KM12 = test system: KM12
K562 = test system: K562
SK-MEL-28 = test system: SK-MEL-28
NCI-H23 = test system: NCI-H23
COLO 205 = test system: COLO 205
MCF7 = test system: MCF7
SF-539 = test system: SF-539
MDA-MB-435 = test system: MDA-MB-435
IGROV-1 = test system: IGROV-1
NCI-H226 = test system: NCI-H226
SK-MEL-2 = test system: SK-MEL-2
TK-10 = test system: TK-10
SK-MEL-5 = test system: SK-MEL-5
SF-295 = test system: SF-295
UO-31 = test system: UO-31
OVCAR-3 = test system: OVCAR-3
CCRF-CEM = test system: CCRF-CEM
M14 = test system: M14
HCT-116 = test system: HCT-116
U-251 = test system: U-251
HCT-15 = test system: HCT-15
MDA-MB-231 = test system: MDA-MB-231
OVCAR-5 = test system: OVCAR-5
DU-145 = test system: DU-145
RPMI-8226 = test system: RPMI-8226
T47D = test system: T47D
A549 = test system: A549
OVCAR-8 = test system: OVCAR-8
786-0 = test system: 786-0
HOP-92 = test system: HOP-92
SK-OV-3 = test system: SK-OV-3
ACHN = test system: ACHN
SW-620 = test system: SW-620
NCI-H522 = test system: NCI-H522
BT-549 = test system: BT-549
MOLT-4 = test system: MOLT-4
UACC-62 = test system: UACC-62
SNB-75 = test system: SNB-75
CAKI-1 = test system: CAKI-1
UACC-257 = test system: UACC-257
A498 = test system: A498
NCI-H460 = test system: NCI-H460
PC-3 = test system: PC-3
LOX IMVI = test system: LOX IMVI
Malme-3M = test system: Malme-3M

## CCOC(=O)CSc1nc(-c2ccccc2)c(C#N)c(=O)[nH]1
SF-268
  GI50: > 100 µM (inactive)
SNB-19
  GI50: > 100 µM (inactive)
NCI/ADR-RES
  GI50: > 100 µM (inactive)
SN12C
  GI50: > 100 µM (inactive)
SR
  GI50: > 100 µM (inactive)
Hs-578T
  GI50: > 100 µM (inactive)
HCC 2998
  GI50: > 100 µM (inactive)
EKVX
  GI50: > 100 µM (inactive)
HT-29
  GI50: > 100 µM (inactive)
HOP-62
  GI50: > 100 µM (inactive)
OVCAR-4
  GI50: > 100 µM (inactive)
RXF 393
  GI50: > 100 µM (inactive)
HL-60
  GI50: > 100 µM (inactive)
KM12
  GI50: > 100 µM (inactive)
K562
  GI50: > 100 µM (inactive)
SK-MEL-28
  GI50: > 100 µM (inactive)
NCI-H23
  GI50: > 100 µM (inactive)
COLO 205
  GI50: > 100 µM (inactive)
MCF7
  GI50: > 100 µM (inactive)
SF-539
  GI50: > 100 µM (inactive)
MDA-MB-435
  GI50: > 100 µM (inactive)
IGROV-1
  GI50: > 100 µM (inactive)
NCI-H226
  GI50: > 100 µM (inactive)
SK-MEL-2
  GI50: > 100 µM (inactive)
TK-10
  GI50: > 100 µM (inactive)
SK-MEL-5
  GI50: > 100 µM (inactive)
SF-295
  GI50: > 100 µM (inactive)
UO-31
  GI50: > 100 µM (inactive)
OVCAR-3
  GI50: > 100 µM (inactive)
CCRF-CEM
  GI50: > 100 µM (inactive)
M14
  GI50: > 100 µM (inactive)
HCT-116
  GI50: > 100 µM (inactive)
U-251
  GI50: > 100 µM (inactive)
HCT-15
  GI50: > 100 µM
MDA-MB-231
  GI50: > 100 µM (inactive)
OVCAR-5
  GI50: > 100 µM (inactive)
DU-145
  GI50: > 100 µM (inactive)
RPMI-8226
  GI50: > 100 µM (inactive)
T47D
  GI50: > 100 µM (inactive)
A549
  GI50: > 100 µM (inactive)
OVCAR-8
  GI50: > 100 µM (inactive)
786-0
  GI50: > 100 µM (inactive)
HOP-92
  GI50: > 100 µM (inactive)
SK-OV-3
  GI50: > 100 µM (inactive)
ACHN
  GI50: > 100 µM (inactive)
SW-620
  GI50: > 100 µM (inactive)
NCI-H522
  GI50: 21.4 µM (inactive)
BT-549
  GI50: > 100 µM (inactive)
MOLT-4
  GI50: > 100 µM (inactive)
UACC-62
  GI50: > 100 µM (inactive)
SNB-75
  GI50: > 100 µM (inactive)
CAKI-1
  GI50: > 100 µM (inactive)
UACC-257
  GI50: > 100 µM (inactive)
A498
  GI50: > 100 µM (inactive)
NCI-H460
  GI50: > 100 µM (inactive)
PC-3
  GI50: > 100 µM (inactive)

## CC1(C)CCc2c(ccc(C(=O)/C=C/c3ccc(O)cc3)c2O)O1 [DORSMANNIN A]
SF-268
  GI50: 12.9 µM (inactive)
SNB-19
  GI50: 13.9 µM (inactive)
NCI/ADR-RES
  GI50: 11.4 µM (inactive)
SN12C
  GI50: 10.9 µM (inactive)
SR
  GI50: 11.9 µM (inactive)
Hs-578T
  GI50: 14.1 µM (inactive)
EKVX
  GI50: 0.142 µM (active)
LOX IMVI
  GI50: 10.2 µM (inactive)
HT-29
  GI50: 11.9 µM (inactive)
HOP-62
  GI50: 9.91 µM (inactive)
OVCAR-4
  GI50: 9.48 µM (inactive)
RXF 393
  GI50: 10.6 µM (inactive)
HL-60
  GI50: 19.7 µM (inactive)
K562
  GI50: 27.8 µM (inactive)
SK-MEL-28
  GI50: 0.201 µM (active)
NCI-H23
  GI50: 12.5 µM (inactive)
COLO 205
  GI50: 10.9 µM (inactive)
MCF7
  GI50: 14.2 µM (inactive)
SF-539
  GI50: 11.9 µM (inactive)
MDA-MB-435
  GI50: 10.3 µM (inactive)
IGROV-1
  GI50: 9.1 µM (inactive)
NCI-H226
  GI50: 11.3 µM (inactive)
SK-MEL-2
  GI50: 11.9 µM (inactive)
TK-10
  GI50: 10.3 µM (inactive)
SK-MEL-5
  GI50: 11.2 µM (inactive)
SF-295
  GI50: 12.4 µM (inactive)
UO-31
  GI50: 12.3 µM (inactive)
OVCAR-3
  GI50: 8.99 µM (inactive)
CCRF-CEM
  GI50: 2.78 µM (inactive)
M14
  GI50: 10.9 µM (inactive)
HCT-116
  GI50: 10.3 µM (inactive)
U-251
  GI50: 10.4 µM (inactive)
HCT-15
  GI50: 10.8 µM
MDA-MB-231
  GI50: 9.25 µM (inactive)
OVCAR-5
  GI50: 11.6 µM (inactive)
DU-145
  GI50: 9.25 µM (inactive)
RPMI-8226
  GI50: 8.39 µM (inactive)
T47D
  GI50: 1.56 µM (inactive)
A549
  GI50: 11.9 µM (inactive)
OVCAR-8
  GI50: 12 µM (inactive)
HOP-92
  GI50: 11.2 µM (inactive)
SK-OV-3
  GI50: 17.7 µM (inactive)
ACHN
  GI50: 10.7 µM (inactive)
SW-620
  GI50: 13 µM (inactive)
BT-549
  GI50: 12.2 µM (inactive)
MOLT-4
  GI50: 16.1 µM (inactive)
UACC-62
  GI50: 10 µM (inactive)
Malme-3M
  GI50: 7.59 µM (inactive)
CAKI-1
  GI50: 5.28 µM (inactive)
UACC-257
  GI50: 12.5 µM (inactive)
A498
  GI50: 13.7 µM (inactive)
NCI-H460
  GI50: 12.1 µM (inactive)
PC-3
  GI50: 8.57 µM (inactive)
